Assay results published in ChEMBL document CHEMBL1201862, “PubChem BioAssay data set” (2004).
The source made the active and inactive calls.

Assays:
[1] = MALME3 melanoma cell viability reduction, dose response, orthogonal assay for MITF inhibitor project, CellTiter-Glo luminescence, dry powder, set 5 (AID 651584); type: functional, cell-based; conditions: MALME-3
[2] = MITF Measured in Cell-Based System Using Plate Reader - 2084-01_Inhibitor_Dose_DryPowder_Activity_Set6.; type: functional
[3] = MITF Measured in Cell-Based System Using Plate Reader - 2084-01_Inhibitor_Dose_DryPowder_Activity_Set7.; type: functional
[4] = MITF Orthogonal Assay: MALME3 CTG Assay Measured in Cell-Based System Using Plate Reader - 2084-04_Inhibitor_Dose_DryPowder_Activity_Set6.; type: functional; conditions: MALME-3
[5] = cytotoxicity in primary human melanocytes, dose response, cytotoxicity control, cell-based, plate reader, dry powder (AID 651920); type: functional
[6] = SK-MEL-5 parental cell viability reduction, dose response, orthogonal assay for MITF inhibitor project, CellTiter-Glo luminescence, dry powder, set 8 (AID 651586); type: functional, cell-based
[7] = MITF Orthogonal Assay: SK-MEL-5 CTG Assay Measured in Cell-Based System Using Plate Reader - 2084-02_Inhibitor_Dose_DryPowder_Activity_Set5.; type: functional
[8] = TRPM1 promoter luciferase reporter signal decrease, dose response, MITF inhibitor project, cell-based, SK-MEL-5, dry powder, set 9 (AID 651588); type: functional
[9] = SK-MEL-5 parental line viability, dose response, MITF inhibitor project, cell-based, CellTiter-Glo, dry powder, set 6 (AID 624429); type: functional
[10] = A375 melanoma cell viability loss, dose response, counter-screen for MITF inhibitor project, CellTiter-Glo luminescence, dry powder, set 4 (AID 624364); type: functional, cell-based; conditions: A-375;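 also: A375 melanoma cells are MITF independent so this is a counter screen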
[11] = A375 melanoma cell cytotoxicity, dose response, counter-screen for MITF inhibitor project, CellTiter-Glo luminescence, dry powder, set 6 (AID 624488); type: functional, cell-based; conditions: A-375
[12] = Artemis endonuclease inhibitor potency, dose response, biochemical, fluorescence intensity (AID 720701); type: functional;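 also: Artemis endonuclease enzyme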
[13] = insulin promoter down-regulators in MIN6 cells, imaging, high-content screening, mouse beta cells (AID 1628); type: functional
[14] = cytotoxicity in MIN6 insulinoma cells, dose response, cytotoxicity control, cell-based, mouse insulinoma (AID 2122); type: functional;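 also: confirmatory high-throughput counterscreen run to flag cytotoxic compounds; mouse MIN-6 beta cells carrying an insulin promoter eGFP reporter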
[15] = inhibitors of non-replicating M. tuberculosis, dose response, luciferase, dry powder (AID 651620); type: functional; conditions: Mycobacterium tuberculosis
[16] = inhibitors of non-replicating M. tuberculosis, dose response, luciferase, dry powder (AID 651619); type: functional; conditions: Mycobacterium tuberculosis
[17] = T. cruzi growth inhibition in host cells, dose response, cell-based, plate reader, dry powder, set 2 (AID 652275); type: functional
[18] = T. cruzi intracellular amastigote growth inhibition, dose response, imaging, CA-I/72 strain, bovine embryo skeletal muscle, dry powder (AID 651885); type: functional, cell-based
[19] = growth inhibition of intracellular T. cruzi, dose response, cell-based, plate reader, dry powder samples (AID 651845); type: functional
[20] = Late stage counterscreen for inhibitors of Trypanosoma brucei methionyl tRNA synthetase (MetRS): Luminescence-based cell-based high throughput dose response assay to identify compounds that are cytotoxic to Jurkat human T lymphocyte cells.; type: functional
[21] = biological target: T1, Methionyl-tRNA synthetase, putative (Trypanosoma brucei brucei, UniProt Q38C91); type: functional, Trypanosoma brucei brucei strain 927/4 GUTat10.1
T1 sequence (Q38C91 whole entry): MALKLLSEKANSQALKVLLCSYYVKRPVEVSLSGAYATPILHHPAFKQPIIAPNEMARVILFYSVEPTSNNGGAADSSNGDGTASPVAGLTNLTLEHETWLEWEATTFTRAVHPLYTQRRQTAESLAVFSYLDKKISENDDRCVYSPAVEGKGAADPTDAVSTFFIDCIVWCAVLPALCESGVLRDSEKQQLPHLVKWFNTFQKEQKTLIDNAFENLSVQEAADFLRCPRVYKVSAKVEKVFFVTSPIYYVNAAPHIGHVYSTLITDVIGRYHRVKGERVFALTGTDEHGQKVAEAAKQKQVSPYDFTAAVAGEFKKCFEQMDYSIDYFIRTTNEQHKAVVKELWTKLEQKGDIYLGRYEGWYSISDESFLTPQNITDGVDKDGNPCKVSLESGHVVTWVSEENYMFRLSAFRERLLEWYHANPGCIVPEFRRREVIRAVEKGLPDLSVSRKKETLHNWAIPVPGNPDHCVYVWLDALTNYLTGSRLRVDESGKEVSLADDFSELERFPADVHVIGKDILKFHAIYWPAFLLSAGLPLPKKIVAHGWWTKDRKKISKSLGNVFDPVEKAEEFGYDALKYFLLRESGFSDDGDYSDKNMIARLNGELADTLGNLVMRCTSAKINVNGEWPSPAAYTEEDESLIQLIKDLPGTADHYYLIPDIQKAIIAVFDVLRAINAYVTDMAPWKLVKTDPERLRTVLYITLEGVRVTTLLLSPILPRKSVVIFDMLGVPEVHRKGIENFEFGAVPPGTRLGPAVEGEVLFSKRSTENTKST

[22] = Counterscreen for inhibitors of Trypanosoma brucei methionyl tRNA synthetase (MetRS): Luminescence-based cell-based high throughput dose response assay to identify compounds that are cytotoxic to Jurkat human T lymphocyte cells.; type: functional
[23] = biological target: T1, Methionyl-tRNA synthetase, putative; type: functional, Trypanosoma brucei brucei strain 927/4 GUTat10.1; remark: listed apart in the source
[24] = HepG2 cell cytotoxicity, dose response, cytotoxicity control, ATP luminescence, dry powder, Set4 (AID 743143); type: functional, cell-based

O=C1C(Nc2ccccc2)=C(c2ccccc2)C(=O)c2ccccc21
AC50 [1]: 68.9 µM (active)
AC50 [2]: 10.2 µM (active)
AC50 [3]: 8.71 µM (active)
AC50 [4]: 68.9 µM (active)
AC50 [5]: > 70 µM (inactive)
AC50 [6]: 29.3 µM (active)
AC50 [7]: 27.6 µM (active)
AC50 [8]: 28.8 µM (active)
AC50 [9]: 35 µM (active)
AC50 [10]: > 70 µM (inactive)
AC50 [11]: > 70 µM (inactive)

COCCNc1nc(-n2nc(C)cc2C)nc2sc3c(c12)CCCC3
IC50 [12]: 11.7 µM (active)
IC50 [13]: 2.54 µM (active)
IC50 [14]: 2.1 µM (active)

c1ccc(-c2nnc(SC3CCCCC3)o2)cc1
IC90 [15]: 2 µM (active)
IC90 [16]: 2 µM (active)

CC(C)N1C[C@H](C)[C@@H](CN(C)Cc2cccc(Cl)c2)Oc2c(NC(=O)c3ccncc3)cccc2C1=O
AC50 [17]: 2.08 nM (active)
IC50 [18]: 1.02 nM (active)
AC50 [19]: 2.08 nM (active)

O=C(NNC(=O)c1ccc(-n2cncn2)c([N+](=O)[O-])c1)c1ccc(Cl)cc1
IC50 [20]: > 83.3 µM (inactive)
IC50 [21]: 4.43 µM (active)
IC50 [22]: 83.2 µM (inactive)
IC50 [23]: 2.72 µM (active)

O=C(CCCNC(=O)c1ccc(Cl)c(Cl)c1)N[C@@H]1CCCc2ccccc21
AC50 [24]: > 52 µM (inactive)
